{"source": "paper PMC12090182", "about": "“Repurposing of the RIPK1-Selective Benzo[1,4]oxazepin-4-one Scaffold for the Development of a Type III LIMK1/2 Inhibitor” (ACS Chemical Biology, 2025)", "assay_in_all_cases": "scanMAX KINOMEscan (Eurofins)", "format_in_all_cases": "binding", "key": {"RET": {"target": "RET (Homo sapiens, UniProt P07949)", "conditions": "compound concentration 100 nM; Entrez RET; read-out: Percent Control", "description": "(§1) Supplement cb5c00097_si_002.xlsx, sheet \"Table S6 (Eurofins Selectivity)\" | column: Percent Control"}, "PIK3CD": {"target": "PIK3CD (Homo sapiens, UniProt O00329)", "conditions": "1000 nM, read-out: Percent Control", "description": "as §1"}, "YSK4": {"target": "YSK4 (Homo sapiens, UniProt Q56UN5)", "conditions": "compound concentration 100 nM; Entrez MAP3K19; read-out: Percent Control", "description": "as §1"}, "DCAMKL2": {"target": "DCAMKL2 (Homo sapiens, UniProt Q8N568)", "conditions": "1000 nM, read-out: Percent Control", "description": "as §1"}, "TXK": {"target": "TXK (Homo sapiens, UniProt P42681)", "conditions": "1000 nM, read-out: Percent Control", "description": "as §1"}, "[1]": {"target": "JAK3(JH1domain-catalytic) (Homo sapiens, UniProt P52333)", "conditions": "1000 nM, read-out: Percent Control", "description": "as §1"}, "WEE1": {"target": "WEE1 (Homo sapiens, UniProt P30291)", "conditions": "1000 nM, read-out: Percent Control", "description": "as §1"}, "PDGFRA": {"target": "PDGFRA (Homo sapiens, UniProt P16234)", "conditions": "1000 nM, read-out: Percent Control", "description": "as §1"}, "SGK": {"target": "SGK (Homo sapiens, UniProt O00141)", "conditions": "compound concentration 100 nM; Entrez SGK1; read-out: Percent Control", "description": "as §1"}, "[2]": {"target": "RSK4(Kin.Dom.2-C-terminal) (Homo sapiens, UniProt Q9UK32)", "sequence (Q9UK32 401-745)": "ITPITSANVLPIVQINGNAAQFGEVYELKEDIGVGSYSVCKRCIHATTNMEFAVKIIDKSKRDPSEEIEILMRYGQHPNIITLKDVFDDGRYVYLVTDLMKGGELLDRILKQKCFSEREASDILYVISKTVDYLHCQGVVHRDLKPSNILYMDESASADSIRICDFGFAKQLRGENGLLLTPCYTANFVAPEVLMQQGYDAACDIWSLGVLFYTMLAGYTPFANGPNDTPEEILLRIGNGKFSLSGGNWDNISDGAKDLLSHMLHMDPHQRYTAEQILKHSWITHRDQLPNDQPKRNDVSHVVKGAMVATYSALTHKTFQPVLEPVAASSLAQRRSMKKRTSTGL", "conditions": "1000 nM, read-out: Percent Control", "description": "as §1"}, "CDC2L1": {"target": "CDC2L1 (Homo sapiens, UniProt P21127)", "conditions": "1000 nM, read-out: Percent Control", "description": "as §1"}, "PLK4": {"target": "PLK4 (Homo sapiens, UniProt O00444)", "conditions": "1000 nM, read-out: Percent Control", "description": "as §1"}, "[3]": {"target": "RSK1(Kin.Dom.1-N-terminal) (Homo sapiens, UniProt Q15418)", "conditions": "compound concentration 100 nM; Entrez RPS6KA1; read-out: Percent Control", "description": "as §1"}, "CAMKK2": {"target": "CAMKK2 (Homo sapiens, UniProt Q96RR4)", "conditions": "1000 nM, read-out: Percent Control", "description": "as §1"}, "DMPK": {"target": "DMPK (Homo sapiens, UniProt Q09013)", "sequence (Q09013 whole entry)": "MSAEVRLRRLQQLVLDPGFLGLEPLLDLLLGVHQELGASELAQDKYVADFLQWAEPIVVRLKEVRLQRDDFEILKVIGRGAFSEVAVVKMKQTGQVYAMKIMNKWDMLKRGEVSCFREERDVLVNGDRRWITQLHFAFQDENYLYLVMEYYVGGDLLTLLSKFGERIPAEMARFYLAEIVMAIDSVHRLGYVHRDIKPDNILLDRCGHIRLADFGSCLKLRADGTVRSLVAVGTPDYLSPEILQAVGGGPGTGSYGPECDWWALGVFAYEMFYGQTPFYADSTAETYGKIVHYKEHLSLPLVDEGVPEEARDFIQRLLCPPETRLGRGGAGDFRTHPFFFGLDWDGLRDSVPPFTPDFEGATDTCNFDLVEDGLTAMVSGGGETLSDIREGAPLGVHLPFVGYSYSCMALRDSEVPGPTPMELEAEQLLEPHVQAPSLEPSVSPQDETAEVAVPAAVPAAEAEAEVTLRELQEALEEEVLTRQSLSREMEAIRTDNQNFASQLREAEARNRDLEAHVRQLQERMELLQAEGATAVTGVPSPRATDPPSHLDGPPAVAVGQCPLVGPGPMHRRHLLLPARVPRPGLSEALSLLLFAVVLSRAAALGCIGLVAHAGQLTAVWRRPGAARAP", "conditions": "read-out: Percent Control", "description": "as §1"}, "HIPK1": {"target": "HIPK1 (Homo sapiens, UniProt Q86Z02)", "conditions": "1000 nM, read-out: Percent Control", "description": "as §1"}, "ALK": {"target": "ALK (Homo sapiens, UniProt Q9UM73)", "conditions": "read-out: Percent Control", "description": "as §1"}, "MRCKA": {"target": "MRCKA (Homo sapiens, UniProt Q5VT25)", "conditions": "1000 nM, read-out: Percent Control", "description": "as §1"}, "KIT": {"target": "KIT (Homo sapiens, UniProt P10721)", "conditions": "1000 nM, read-out: Percent Control", "description": "as §1"}, "TRKC": {"target": "TRKC (Homo sapiens, UniProt Q16288)", "conditions": "1000 nM, read-out: Percent Control", "description": "as §1"}, "CAMK4": {"target": "CAMK4 (Homo sapiens, UniProt Q16566)", "conditions": "1000 nM, read-out: Percent Control", "description": "as §1"}, "CDK4": {"target": "CDK4 (Homo sapiens, UniProt P11802)", "conditions": "1000 nM, read-out: Percent Control", "description": "as §1"}, "FGFR3": {"target": "FGFR3 (Homo sapiens, UniProt P22607)", "sequence (P22607 23-806)": "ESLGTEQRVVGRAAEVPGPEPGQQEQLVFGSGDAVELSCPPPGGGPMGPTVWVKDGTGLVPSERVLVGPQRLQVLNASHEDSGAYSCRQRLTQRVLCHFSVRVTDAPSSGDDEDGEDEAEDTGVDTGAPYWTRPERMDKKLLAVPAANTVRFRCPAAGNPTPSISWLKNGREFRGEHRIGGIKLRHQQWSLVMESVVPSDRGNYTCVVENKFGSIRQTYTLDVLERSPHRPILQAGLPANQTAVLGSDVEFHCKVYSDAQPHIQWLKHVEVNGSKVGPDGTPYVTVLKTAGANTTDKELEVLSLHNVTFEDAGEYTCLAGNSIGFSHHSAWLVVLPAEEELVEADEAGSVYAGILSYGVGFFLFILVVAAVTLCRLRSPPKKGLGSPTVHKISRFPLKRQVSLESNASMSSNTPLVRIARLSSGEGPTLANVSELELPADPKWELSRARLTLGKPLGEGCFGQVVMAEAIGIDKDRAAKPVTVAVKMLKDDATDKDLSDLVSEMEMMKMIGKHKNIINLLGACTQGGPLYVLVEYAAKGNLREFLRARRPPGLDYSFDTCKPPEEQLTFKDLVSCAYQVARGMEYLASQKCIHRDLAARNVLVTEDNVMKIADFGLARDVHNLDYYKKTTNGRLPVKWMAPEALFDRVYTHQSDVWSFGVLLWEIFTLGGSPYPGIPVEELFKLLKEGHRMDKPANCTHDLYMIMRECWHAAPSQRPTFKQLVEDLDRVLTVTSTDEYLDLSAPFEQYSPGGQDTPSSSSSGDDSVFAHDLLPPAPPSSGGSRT", "conditions": "read-out: Percent Control", "description": "as §1"}, "EPHB4": {"target": "EPHB4 (Homo sapiens, UniProt P54760)", "conditions": "1000 nM, read-out: Percent Control", "description": "as §1"}, "TGFBR2": {"target": "TGFBR2 (Homo sapiens, UniProt P37173)", "conditions": "compound concentration 100 nM; Entrez TGFBR2; read-out: Percent Control", "description": "as §1"}, "SIK": {"target": "SIK (Homo sapiens, UniProt P57059)", "conditions": "1000 nM, read-out: Percent Control", "description": "as §1"}, "NLK": {"target": "NLK (Homo sapiens, UniProt Q9UBE8)", "conditions": "1000 nM, read-out: Percent Control", "description": "as §1"}, "CDKL1": {"target": "CDKL1 (Homo sapiens, UniProt Q00532)", "sequence (Q00532 whole entry)": "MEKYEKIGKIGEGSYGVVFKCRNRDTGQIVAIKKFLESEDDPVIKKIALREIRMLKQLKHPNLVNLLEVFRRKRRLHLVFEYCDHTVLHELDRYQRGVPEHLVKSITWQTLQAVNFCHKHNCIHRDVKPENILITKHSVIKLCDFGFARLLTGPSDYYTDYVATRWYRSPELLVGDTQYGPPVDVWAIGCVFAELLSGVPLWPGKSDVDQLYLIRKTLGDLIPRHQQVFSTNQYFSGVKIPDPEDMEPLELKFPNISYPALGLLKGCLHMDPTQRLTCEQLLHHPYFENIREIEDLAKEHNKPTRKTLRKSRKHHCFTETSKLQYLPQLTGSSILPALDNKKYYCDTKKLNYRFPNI", "conditions": "read-out: Percent Control", "description": "as §1"}, "[4]": {"target": "RSK3(Kin.Dom.1-N-terminal) (Homo sapiens, UniProt Q15349)", "sequence (Q15349 1-388)": "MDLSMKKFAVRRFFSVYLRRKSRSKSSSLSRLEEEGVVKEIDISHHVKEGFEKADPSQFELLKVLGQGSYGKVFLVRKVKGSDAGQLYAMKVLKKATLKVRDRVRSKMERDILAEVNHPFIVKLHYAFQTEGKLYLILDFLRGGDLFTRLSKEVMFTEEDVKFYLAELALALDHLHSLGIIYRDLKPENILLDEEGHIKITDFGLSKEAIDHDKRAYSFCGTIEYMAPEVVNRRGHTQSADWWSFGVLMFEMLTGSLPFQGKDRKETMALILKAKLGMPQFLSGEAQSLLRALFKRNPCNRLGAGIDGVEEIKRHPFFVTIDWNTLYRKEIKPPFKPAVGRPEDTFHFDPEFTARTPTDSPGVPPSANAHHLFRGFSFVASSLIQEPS", "conditions": "1000 nM, read-out: Percent Control", "description": "as §1"}, "CASK": {"target": "CASK (Homo sapiens, UniProt O14936)", "sequence (O14936 whole entry)": "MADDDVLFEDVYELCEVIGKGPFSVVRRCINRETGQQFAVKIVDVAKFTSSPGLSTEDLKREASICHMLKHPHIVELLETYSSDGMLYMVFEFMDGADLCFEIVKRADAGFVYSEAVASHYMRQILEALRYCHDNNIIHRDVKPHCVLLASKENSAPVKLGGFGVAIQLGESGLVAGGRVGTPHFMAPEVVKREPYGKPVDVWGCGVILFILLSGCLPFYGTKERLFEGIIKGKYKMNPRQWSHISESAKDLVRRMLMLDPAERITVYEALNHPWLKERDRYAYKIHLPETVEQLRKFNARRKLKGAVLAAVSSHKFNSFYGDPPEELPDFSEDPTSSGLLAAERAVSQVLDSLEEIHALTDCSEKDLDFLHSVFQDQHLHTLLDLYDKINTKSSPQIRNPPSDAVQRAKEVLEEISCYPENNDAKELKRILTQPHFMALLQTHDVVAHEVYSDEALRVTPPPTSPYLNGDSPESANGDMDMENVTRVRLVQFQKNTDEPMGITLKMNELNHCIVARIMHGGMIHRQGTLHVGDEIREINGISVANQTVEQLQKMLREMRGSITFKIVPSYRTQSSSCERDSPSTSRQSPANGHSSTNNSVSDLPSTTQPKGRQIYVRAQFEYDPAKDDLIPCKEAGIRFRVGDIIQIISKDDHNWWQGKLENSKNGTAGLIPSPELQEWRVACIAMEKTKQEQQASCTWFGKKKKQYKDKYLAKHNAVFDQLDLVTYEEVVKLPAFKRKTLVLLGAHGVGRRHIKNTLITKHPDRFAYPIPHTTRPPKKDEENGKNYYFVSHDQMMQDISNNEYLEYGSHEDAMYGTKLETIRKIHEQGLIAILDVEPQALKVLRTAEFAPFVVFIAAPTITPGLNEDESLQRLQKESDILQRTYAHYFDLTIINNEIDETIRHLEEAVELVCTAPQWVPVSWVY", "conditions": "read-out: Percent Control", "description": "as §1"}, "MEK4": {"target": "MEK4 (Homo sapiens, UniProt P45985)", "conditions": "compound concentration 100 nM; Entrez MAP2K4; read-out: Percent Control", "description": "as §1"}, "ERBB2": {"target": "ERBB2 (Homo sapiens, UniProt P04626)", "sequence (P04626 23-1255)": "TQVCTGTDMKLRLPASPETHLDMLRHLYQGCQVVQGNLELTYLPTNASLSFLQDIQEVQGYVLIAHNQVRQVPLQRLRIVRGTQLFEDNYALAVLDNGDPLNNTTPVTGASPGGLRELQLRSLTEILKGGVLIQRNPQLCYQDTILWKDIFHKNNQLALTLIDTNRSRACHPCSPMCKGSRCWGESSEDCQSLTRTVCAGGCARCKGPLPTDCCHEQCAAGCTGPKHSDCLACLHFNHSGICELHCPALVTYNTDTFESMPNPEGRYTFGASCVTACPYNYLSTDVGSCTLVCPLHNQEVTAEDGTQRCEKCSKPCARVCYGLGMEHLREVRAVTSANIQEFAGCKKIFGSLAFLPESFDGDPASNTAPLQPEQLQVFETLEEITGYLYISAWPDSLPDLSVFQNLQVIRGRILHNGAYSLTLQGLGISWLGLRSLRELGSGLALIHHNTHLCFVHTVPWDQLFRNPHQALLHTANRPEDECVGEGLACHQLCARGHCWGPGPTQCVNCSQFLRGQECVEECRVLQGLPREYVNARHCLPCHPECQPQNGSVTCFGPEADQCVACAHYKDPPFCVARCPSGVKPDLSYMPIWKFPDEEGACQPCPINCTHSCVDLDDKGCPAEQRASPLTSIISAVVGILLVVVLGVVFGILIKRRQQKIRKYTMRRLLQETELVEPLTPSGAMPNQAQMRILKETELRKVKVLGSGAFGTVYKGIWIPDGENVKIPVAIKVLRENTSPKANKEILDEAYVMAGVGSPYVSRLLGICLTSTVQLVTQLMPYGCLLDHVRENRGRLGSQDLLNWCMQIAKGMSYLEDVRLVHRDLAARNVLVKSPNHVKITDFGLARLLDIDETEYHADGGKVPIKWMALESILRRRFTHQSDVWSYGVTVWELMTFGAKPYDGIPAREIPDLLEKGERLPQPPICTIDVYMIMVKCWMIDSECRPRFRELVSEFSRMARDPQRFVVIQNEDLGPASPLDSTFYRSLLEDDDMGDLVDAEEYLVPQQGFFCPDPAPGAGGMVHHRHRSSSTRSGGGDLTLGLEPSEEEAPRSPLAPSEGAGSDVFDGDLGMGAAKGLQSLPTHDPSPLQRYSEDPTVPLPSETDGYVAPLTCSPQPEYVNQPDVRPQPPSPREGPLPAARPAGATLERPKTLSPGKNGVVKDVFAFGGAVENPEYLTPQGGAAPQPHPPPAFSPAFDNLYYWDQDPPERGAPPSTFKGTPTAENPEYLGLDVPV", "conditions": "read-out: Percent Control", "description": "as §1"}, "YES": {"target": "YES (Homo sapiens, UniProt P07947)", "conditions": "1000 nM, read-out: Percent Control", "description": "as §1"}, "ERK4": {"target": "ERK4 (Homo sapiens, UniProt P31152)", "conditions": "1000 nM, read-out: Percent Control", "description": "as §1"}, "PIM1": {"target": "PIM1 (Homo sapiens, UniProt P11309)", "sequence (P11309 whole entry)": "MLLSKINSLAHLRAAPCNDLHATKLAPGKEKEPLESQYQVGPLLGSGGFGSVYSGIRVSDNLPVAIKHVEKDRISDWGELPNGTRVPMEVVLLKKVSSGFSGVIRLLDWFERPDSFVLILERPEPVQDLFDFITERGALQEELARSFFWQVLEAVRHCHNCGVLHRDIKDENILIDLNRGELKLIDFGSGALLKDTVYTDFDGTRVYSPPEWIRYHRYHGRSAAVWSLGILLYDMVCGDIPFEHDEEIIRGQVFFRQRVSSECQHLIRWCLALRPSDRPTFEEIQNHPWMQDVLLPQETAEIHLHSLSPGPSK", "conditions": "1000 nM, read-out: Percent Control", "description": "as §1"}, "TNK1": {"target": "TNK1 (Homo sapiens, UniProt Q13470)", "conditions": "1000 nM, read-out: Percent Control", "description": "as §1"}, "TRKA": {"target": "TRKA (Homo sapiens, UniProt P04629)", "conditions": "1000 nM, read-out: Percent Control", "description": "as §1"}}}
{"smiles": "CN1C(=O)[C@@H](N2CCc3c(nn(Cc4ccccc4)c3C(N)=O)C2=O)COc2cc(Cl)ccc21", "note": "[Compound 10, (S)-2-benzyl-6-(8-chloro-5-methyl-4-oxo-2,3,4,5-tetrahydrobenzo[b][1,4]oxazepin-3-yl)-7-oxo-4,5,6,7-tetrahydro-2H-pyrazolo[3,4-c]pyridine-3-carboxamide]", "values": [{"measurement": "remaining binding at 0.1 µM", "setting": "RET", "result": 100, "unit": "%"}, {"measurement": "remaining binding at 1 µM", "setting": "PIK3CD", "result": 83, "unit": "%"}, {"measurement": "remaining binding at 0.1 µM", "setting": "YSK4", "result": 88, "unit": "%"}, {"measurement": "remaining binding at 1 µM", "setting": "DCAMKL2", "result": 83, "unit": "%"}, {"measurement": "remaining binding at 1 µM", "setting": "TXK", "result": 86, "unit": "%"}, {"measurement": "remaining binding at 1 µM", "setting": "[1]", "result": 85, "unit": "%"}, {"measurement": "remaining binding at 1 µM", "setting": "WEE1", "result": 95, "unit": "%"}, {"measurement": "remaining binding at 1 µM", "setting": "PDGFRA", "result": 87, "unit": "%"}, {"measurement": "remaining binding at 0.1 µM", "setting": "SGK", "result": 98, "unit": "%"}, {"measurement": "remaining binding at 1 µM", "setting": "[2]", "result": 93, "unit": "%"}, {"measurement": "remaining binding at 1 µM", "setting": "CDC2L1", "result": 83, "unit": "%"}, {"measurement": "remaining binding at 1 µM", "setting": "PLK4", "result": 82, "unit": "%"}, {"measurement": "remaining binding at 0.1 µM", "setting": "[3]", "result": 75, "unit": "%"}, {"measurement": "remaining binding at 1 µM", "setting": "CAMKK2", "result": 80, "unit": "%"}, {"measurement": "remaining binding at 1 µM", "setting": "DMPK; 1000 nM", "result": 100, "unit": "%"}, {"measurement": "remaining binding at 0.1 µM", "setting": "DMPK; compound concentration 100 nM, Entrez DMPK", "result": 80, "unit": "%"}, {"measurement": "remaining binding at 1 µM", "setting": "HIPK1", "result": 93, "unit": "%"}, {"measurement": "remaining binding at 1 µM", "setting": "ALK; 1000 nM", "result": 100, "unit": "%"}, {"measurement": "remaining binding at 0.1 µM", "setting": "ALK; compound concentration 100 nM, Entrez ALK", "result": 84, "unit": "%"}, {"measurement": "remaining binding at 1 µM", "setting": "MRCKA", "result": 88, "unit": "%"}, {"measurement": "remaining binding at 1 µM", "setting": "KIT", "result": 89, "unit": "%"}, {"measurement": "remaining binding at 1 µM", "setting": "TRKC", "result": 64, "unit": "%"}, {"measurement": "remaining binding at 1 µM", "setting": "CAMK4", "result": 95, "unit": "%"}, {"measurement": "remaining binding at 1 µM", "setting": "CDK4", "result": 76, "unit": "%"}, {"measurement": "remaining binding at 1 µM", "setting": "FGFR3; 1000 nM", "result": 100, "unit": "%"}, {"measurement": "remaining binding at 0.1 µM", "setting": "FGFR3; compound concentration 100 nM, Entrez FGFR3", "result": 100, "unit": "%"}, {"measurement": "remaining binding at 1 µM", "setting": "EPHB4", "result": 94, "unit": "%"}, {"measurement": "remaining binding at 0.1 µM", "setting": "TGFBR2", "result": 100, "unit": "%"}, {"measurement": "remaining binding at 1 µM", "setting": "SIK", "result": 91, "unit": "%"}, {"measurement": "remaining binding at 1 µM", "setting": "NLK", "result": 98, "unit": "%"}, {"measurement": "remaining binding at 1 µM", "setting": "CDKL1; 1000 nM", "result": 99, "unit": "%"}, {"measurement": "remaining binding at 0.1 µM", "setting": "CDKL1; compound concentration 100 nM, Entrez CDKL1", "result": 96, "unit": "%"}, {"measurement": "remaining binding at 1 µM", "setting": "[4]", "result": 93, "unit": "%"}, {"measurement": "remaining binding at 1 µM", "setting": "CASK; 1000 nM", "result": 100, "unit": "%"}, {"measurement": "remaining binding at 0.1 µM", "setting": "CASK; compound concentration 100 nM, Entrez CASK", "result": 80, "unit": "%"}, {"measurement": "remaining binding at 0.1 µM", "setting": "MEK4", "result": 100, "unit": "%"}, {"measurement": "remaining binding at 1 µM", "setting": "ERBB2; 1000 nM", "result": 100, "unit": "%"}, {"measurement": "remaining binding at 0.1 µM", "setting": "ERBB2; compound concentration 100 nM, Entrez ERBB2", "result": 100, "unit": "%"}, {"measurement": "remaining binding at 1 µM", "setting": "YES", "result": 90, "unit": "%"}, {"measurement": "remaining binding at 1 µM", "setting": "ERK4", "result": 92, "unit": "%"}, {"measurement": "remaining binding at 1 µM", "setting": "PIM1", "result": 78, "unit": "%"}, {"measurement": "remaining binding at 1 µM", "setting": "TNK1", "result": 77, "unit": "%"}, {"measurement": "remaining binding at 1 µM", "setting": "TRKA", "result": 95, "unit": "%"}]}
